Test results reported in article PMC4137556 (Biochimica et biophysica acta, 2013).
Positions of bridges follow the written chain, without caps; N, C: chain ends. Non-standard residues stand in square brackets, D forms with d. Residues, ends and D or L forms follow the SMILES beside them. pGlu = O=C1CC[C@@H](C(=O)O)N1

Experiments:
[1] = system: neuraminidase from Arthrobacter ureafaciens; test: Neuraminidase inhibition; assay type: biochemical; conditions: Arthrobacter ureafaciens enzyme; up to 50 μM
[2] = target: voltage-gated Na+ (NaV1.2) channel (Homo sapiens, UniProt Q99250); test: Voltage-gated Na+ channel inhibition/activation; assay type: cell-based; conditions: ASPA administered alone, up to micromolar concentrations
Sequence of voltage-gated Na+ (NaV1.2) channel (Q99250 whole entry): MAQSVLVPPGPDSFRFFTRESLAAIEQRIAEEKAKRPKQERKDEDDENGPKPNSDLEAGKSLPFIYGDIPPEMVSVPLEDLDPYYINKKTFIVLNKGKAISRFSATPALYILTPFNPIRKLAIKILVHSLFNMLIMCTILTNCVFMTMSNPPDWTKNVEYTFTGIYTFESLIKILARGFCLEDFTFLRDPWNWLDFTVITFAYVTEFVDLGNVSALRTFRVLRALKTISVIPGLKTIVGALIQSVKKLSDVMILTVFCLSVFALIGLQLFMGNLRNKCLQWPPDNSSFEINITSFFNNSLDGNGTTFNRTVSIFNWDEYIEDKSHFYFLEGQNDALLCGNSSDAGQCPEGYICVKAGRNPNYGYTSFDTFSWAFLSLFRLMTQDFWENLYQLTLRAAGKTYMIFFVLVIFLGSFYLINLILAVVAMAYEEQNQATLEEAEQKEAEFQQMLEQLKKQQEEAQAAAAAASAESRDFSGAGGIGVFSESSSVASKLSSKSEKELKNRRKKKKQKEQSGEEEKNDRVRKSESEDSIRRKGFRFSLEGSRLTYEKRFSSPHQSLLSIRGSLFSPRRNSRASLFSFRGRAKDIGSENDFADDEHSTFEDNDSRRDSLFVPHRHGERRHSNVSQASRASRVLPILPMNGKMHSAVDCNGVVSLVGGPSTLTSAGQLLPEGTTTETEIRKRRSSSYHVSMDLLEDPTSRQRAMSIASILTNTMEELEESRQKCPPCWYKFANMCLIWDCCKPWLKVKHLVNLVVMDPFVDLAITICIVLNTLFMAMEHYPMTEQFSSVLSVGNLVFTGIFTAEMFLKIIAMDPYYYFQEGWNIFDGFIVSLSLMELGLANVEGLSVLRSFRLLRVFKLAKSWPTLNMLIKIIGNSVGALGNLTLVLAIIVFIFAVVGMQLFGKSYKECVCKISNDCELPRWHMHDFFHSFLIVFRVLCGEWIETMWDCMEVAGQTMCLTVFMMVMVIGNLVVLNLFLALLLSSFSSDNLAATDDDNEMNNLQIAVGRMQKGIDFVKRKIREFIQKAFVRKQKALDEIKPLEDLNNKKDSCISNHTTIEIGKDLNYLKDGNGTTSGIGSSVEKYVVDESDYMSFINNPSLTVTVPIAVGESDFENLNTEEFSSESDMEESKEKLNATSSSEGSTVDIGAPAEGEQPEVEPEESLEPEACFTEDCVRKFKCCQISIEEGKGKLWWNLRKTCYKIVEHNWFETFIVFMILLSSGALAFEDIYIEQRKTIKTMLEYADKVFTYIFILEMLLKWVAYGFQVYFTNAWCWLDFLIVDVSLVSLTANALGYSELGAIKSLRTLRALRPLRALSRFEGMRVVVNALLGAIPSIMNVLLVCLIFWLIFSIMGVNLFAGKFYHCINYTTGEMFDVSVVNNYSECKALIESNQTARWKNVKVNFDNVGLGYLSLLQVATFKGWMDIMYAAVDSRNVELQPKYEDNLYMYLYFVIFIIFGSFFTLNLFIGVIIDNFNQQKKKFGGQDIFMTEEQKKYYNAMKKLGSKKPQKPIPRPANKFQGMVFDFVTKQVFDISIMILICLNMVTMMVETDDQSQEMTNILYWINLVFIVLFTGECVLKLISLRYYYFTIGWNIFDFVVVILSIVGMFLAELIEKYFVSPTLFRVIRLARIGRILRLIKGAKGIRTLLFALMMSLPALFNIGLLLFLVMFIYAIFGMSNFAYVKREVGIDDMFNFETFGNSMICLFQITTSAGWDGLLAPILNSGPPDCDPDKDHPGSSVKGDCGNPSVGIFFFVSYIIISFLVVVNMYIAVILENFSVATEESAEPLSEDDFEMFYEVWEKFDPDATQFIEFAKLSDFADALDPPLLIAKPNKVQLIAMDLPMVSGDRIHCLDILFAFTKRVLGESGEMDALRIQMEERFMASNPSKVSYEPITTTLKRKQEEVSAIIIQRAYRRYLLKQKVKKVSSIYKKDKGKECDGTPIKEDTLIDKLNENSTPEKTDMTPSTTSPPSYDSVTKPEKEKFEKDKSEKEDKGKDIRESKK

[3] = system: veratridine binding site of the VGSC (neurotoxin site 2)
[4] = target: T1, neuraminidase from Micromonospora viridifaciens (Micromonospora viridifaciens, UniProt Q02834); test: Neuraminidase inhibition; assay type: biochemical; conditions: Micromonospora viridifaciens enzyme; up to 50 μM
T1 sequence (Q02834 38-647): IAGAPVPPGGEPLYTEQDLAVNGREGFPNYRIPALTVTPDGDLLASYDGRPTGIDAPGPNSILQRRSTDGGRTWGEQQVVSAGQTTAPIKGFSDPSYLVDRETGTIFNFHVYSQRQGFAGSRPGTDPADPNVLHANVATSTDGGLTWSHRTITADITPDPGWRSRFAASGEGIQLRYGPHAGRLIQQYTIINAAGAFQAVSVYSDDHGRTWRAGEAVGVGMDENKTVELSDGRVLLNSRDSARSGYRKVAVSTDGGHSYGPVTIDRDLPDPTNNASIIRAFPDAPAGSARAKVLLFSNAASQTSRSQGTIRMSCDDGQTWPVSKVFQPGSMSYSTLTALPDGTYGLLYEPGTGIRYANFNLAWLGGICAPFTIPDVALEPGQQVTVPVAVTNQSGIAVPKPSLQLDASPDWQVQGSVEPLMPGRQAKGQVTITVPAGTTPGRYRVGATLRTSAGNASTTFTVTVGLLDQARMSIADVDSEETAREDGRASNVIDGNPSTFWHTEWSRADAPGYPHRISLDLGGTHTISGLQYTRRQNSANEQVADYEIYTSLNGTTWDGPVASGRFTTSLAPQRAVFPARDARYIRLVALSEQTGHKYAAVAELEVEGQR

[5] = system: neuraminidase from Clostridium perfringens; assay type: biochemical
[6] = system: chicks; test: Toxicity in chicks; assay type: in vivo; conditions: i.c.v. 60 μg/g
[7] = system: neuraminidase from recombinant influenza A virus H1N1; test: Neuraminidase inhibition; assay type: biochemical; conditions: recombinant influenza A virus H1N1 enzyme; up to 50 μM
[8] = target: voltage-gated Ca2+ (Cav1.2) channel (Homo sapiens, UniProt Q13936); test: Voltage-gated Ca2+ channel inhibition/activation; assay type: cell-based; conditions: ASPA administered alone, up to micromolar concentrations
Sequence of voltage-gated Ca2+ (Cav1.2) channel (Q13936 whole entry): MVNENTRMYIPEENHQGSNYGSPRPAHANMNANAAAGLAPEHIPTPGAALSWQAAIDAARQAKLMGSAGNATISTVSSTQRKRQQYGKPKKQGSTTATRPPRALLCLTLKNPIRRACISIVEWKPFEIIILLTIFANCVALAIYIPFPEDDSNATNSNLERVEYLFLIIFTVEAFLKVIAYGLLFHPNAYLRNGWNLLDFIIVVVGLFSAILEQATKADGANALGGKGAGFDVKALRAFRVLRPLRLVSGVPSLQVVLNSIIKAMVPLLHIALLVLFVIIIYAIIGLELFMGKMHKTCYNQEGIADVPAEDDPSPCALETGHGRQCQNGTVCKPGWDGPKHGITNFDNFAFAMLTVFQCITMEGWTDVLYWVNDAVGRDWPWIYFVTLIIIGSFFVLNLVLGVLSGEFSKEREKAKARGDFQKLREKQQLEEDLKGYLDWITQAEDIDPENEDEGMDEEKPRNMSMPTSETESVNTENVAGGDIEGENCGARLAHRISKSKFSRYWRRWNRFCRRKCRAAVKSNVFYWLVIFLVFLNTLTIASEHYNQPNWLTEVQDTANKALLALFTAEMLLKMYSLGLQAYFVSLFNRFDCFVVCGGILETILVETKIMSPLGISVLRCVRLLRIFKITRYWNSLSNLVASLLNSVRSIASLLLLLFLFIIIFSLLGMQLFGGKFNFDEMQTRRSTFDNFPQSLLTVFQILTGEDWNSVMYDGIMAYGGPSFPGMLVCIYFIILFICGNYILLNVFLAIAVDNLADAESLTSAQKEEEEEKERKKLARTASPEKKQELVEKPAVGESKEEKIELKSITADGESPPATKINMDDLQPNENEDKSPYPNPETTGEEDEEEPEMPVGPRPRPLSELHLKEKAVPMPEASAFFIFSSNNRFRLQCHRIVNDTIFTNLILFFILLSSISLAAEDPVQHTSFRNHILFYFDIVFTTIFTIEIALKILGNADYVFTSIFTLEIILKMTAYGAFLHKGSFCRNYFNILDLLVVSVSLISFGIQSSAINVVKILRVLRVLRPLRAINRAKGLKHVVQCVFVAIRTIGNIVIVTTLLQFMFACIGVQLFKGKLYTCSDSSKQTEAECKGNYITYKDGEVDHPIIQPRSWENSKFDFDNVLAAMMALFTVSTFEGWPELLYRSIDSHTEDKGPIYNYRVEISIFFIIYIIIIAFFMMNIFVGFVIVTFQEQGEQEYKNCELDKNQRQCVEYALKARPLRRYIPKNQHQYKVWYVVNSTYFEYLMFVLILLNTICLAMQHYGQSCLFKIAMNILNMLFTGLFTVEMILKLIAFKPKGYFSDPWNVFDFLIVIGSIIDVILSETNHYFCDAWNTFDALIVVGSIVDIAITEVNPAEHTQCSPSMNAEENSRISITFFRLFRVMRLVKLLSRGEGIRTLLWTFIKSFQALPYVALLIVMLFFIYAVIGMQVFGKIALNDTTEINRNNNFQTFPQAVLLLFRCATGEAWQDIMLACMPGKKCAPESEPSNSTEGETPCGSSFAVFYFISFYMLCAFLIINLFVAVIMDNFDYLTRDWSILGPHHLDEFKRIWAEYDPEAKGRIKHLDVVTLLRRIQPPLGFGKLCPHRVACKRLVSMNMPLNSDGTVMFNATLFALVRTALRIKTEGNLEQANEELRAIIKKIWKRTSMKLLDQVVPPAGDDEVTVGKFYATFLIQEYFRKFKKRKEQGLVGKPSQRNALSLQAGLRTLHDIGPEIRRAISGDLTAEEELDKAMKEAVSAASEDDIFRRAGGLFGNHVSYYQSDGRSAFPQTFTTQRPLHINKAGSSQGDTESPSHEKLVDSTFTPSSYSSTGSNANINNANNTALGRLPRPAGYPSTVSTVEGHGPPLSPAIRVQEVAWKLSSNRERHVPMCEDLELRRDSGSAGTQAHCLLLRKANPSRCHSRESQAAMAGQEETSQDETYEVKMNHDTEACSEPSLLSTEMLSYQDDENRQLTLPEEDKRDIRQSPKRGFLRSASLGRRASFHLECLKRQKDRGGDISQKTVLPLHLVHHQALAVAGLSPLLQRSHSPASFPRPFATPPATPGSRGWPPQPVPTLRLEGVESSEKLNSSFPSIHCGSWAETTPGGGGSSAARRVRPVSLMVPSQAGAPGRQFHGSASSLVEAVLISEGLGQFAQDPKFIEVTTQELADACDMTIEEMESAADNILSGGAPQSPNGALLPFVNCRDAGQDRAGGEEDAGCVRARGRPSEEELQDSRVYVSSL

[9] = system: mice; test: Toxicity in mice; assay type: in vivo; conditions: i.p. 40 μg/g
[10] = target: neuraminidase from Vibrio cholera (Vibrio cholerae serotype O1, UniProt P0C6E9); test: Neuraminidase inhibition; assay type: biochemical; conditions: Vibrio cholera enzyme; up to 50 μM
[11] = target: T2, thermolysin (Bacillus thermoproteolyticus, UniProt P00800); test: Proteolytic stability against thermolysin; assay type: in vitro ADME; conditions: thermolysin from Bacillus thermoprotelyticus rokko; 65 °C, up to 12 h
T2 sequence (P00800 233-548): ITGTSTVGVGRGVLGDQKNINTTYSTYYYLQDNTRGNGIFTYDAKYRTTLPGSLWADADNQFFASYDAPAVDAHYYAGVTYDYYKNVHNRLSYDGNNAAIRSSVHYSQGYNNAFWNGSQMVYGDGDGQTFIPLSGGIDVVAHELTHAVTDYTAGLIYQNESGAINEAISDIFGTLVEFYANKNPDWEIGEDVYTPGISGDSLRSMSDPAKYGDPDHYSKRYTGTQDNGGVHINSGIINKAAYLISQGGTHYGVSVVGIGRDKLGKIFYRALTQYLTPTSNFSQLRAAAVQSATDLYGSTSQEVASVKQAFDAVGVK

[12] = system: murine cerebrocortical neuron cells; test: Effect on neuronal Ca2+ oscillations, peptide alone; assay type: cell-based, mouse; conditions: ASPA alone, without veratridine
[13] = target: proteinase K (Parengyodontium album, UniProt P06873); test: Proteolytic stability against proteinase K; assay type: in vitro ADME; conditions: proteinase K from Tritirachium album; 50 °C, up to 48 h
Sequence of proteinase K (P06873 106-384): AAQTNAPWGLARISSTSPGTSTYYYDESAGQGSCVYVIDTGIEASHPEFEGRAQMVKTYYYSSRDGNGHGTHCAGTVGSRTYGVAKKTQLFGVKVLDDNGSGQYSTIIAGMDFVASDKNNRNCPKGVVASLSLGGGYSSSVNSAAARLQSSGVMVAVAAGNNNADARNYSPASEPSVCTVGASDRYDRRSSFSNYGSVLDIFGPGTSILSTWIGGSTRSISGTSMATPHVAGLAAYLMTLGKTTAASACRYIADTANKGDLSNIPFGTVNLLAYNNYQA

[14] = system: bacterial neuraminidases; conditions: cited from earlier work

Row | Molecule | Neuraminidase inhibition [1] | Inhibition or activation of NaV1.2 [2] | Allosteric interaction with the veratridine binding site of the VGSC [3] | Neuraminidase inhibition [4] | Neuraminidase inhibition [5] | Toxicity or behavior changes [6] | Neuraminidase inhibition [7] | Inhibition or activation of Cav1.2 [8] | Toxicity or behavior changes [9] | Neuraminidase inhibition [10] | Proteolytic stability against thermolysin [11] | Effect on oscillation frequency or amplitude of neuronal Ca2+ currents [12] | Proteolytic stability against proteinase K [13] | Inhibition of bacterial neuraminidases [14]
1 | CC[C@H](C)[C@@H]1NC(=O)[C@@H]2CSSC[C@@H]3NC(=O)[C@H](CO)NC(=O)[C@H](CCC(=O)O)NC(=O)CNC(=O)[C@H](CCC(=O)O)NC(=O)[C@H](Cc4ccccc4)NC(=O)[C@H](C)NC(=O)[C@@H](NC(=O)CNC(=O)[C@@H]4CCC(=O)N4)CSSC[C@H](NC(=O)[C@H](CSSC[C@@H](C(=O)N[C@@H](Cc4ccc(O)cc4)C(=O)N[C@@H](Cc4ccc(O)cc4)C(=O)N[C@@H](CC(C)C)C(=O)O)NC(=O)[C@H]([C@@H](C)O)NC(=O)CNC(=O)[C@H](CC(=O)O)NC(=O)[C@@H]4CCCN4C(=O)[C@H](CC(N)=O)NC(=O)CNC(=O)[C@@H]4CCCN4C1=O)NC(=O)[C@@H]1CCCN1C(=O)[C@H](Cc1ccc(O)cc1)NC(=O)[C@H](Cc1ccccc1)NC(=O)[C@H](CCC(N)=O)NC(=O)[C@H](C(C)C)NC(=O)[C@H](CC(N)=O)NC3=O)C(=O)N1CCC[C@H]1C(=O)NCC(=O)N[C@@H](CC(C)C)C(=O)NCC(=O)N[C@@H](CC(C)C)C(=O)N[C@@H]([C@@H](C)O)C(=O)N2 [ASPA, Asteropsin A] ([pGlu]GCAFEGESCNVQFYPCCPGLGLTCIPGNPDGTCYYL-OH; disulfide 3-18, 10-25, 17-34; C-terminus assumed) | no inhibition | Neither the inhibition nor the activation | not observed | no inhibition | no inhibition | no toxicity or behavior changes were observed | no inhibition | Neither the inhibition nor the activation | no toxicity or behavior changes were observed | no inhibition | extraordinary proteolytic stability | did not modify | extraordinary proteolytic stability | 
2 | asteropine A [APA] |  |  |  |  |  |  |  |  |  |  |  |  |  | potent competitive inhibitor
